Test results from patent US20250059185A1 (Hoffmann-La Roche Inc., priority 2021, published 2025).
Structures can show the parent of a compound that is named as a salt.

Molecular target: MAGL (Homo sapiens (Human), UniProt Q99685)
Assay: 2-AG assay (MAGL inhibitory activity, hydrolysis of 2-arachidonoylglycerol followed by mass spectrometry)
Assay type: biochemical
Settings: 50 pM MAGL protein, 15 min pre-incubation, 30 min incubation at RT
In short: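 Human MAGL (50 pM final) preincubated 15 min at RT with compound (3-fold dilutions, 12.5 μM to 0.8 pM final) in 50 mM TRIS, 1 mM EDTA, 0.01% Tween-20, 2.5% DMSO. Reaction with […] 2-AG ran 30 min at RT, then was quenched with acetonitrile containing d8-arachidonic acid. Arachidonic acid measured by SPE–triple-quad MS (negative ESI), activity from the arachidonic/d8-arachidonic acid intensity ratio.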

Chain of MAGL (Q99685 whole entry, species assumed): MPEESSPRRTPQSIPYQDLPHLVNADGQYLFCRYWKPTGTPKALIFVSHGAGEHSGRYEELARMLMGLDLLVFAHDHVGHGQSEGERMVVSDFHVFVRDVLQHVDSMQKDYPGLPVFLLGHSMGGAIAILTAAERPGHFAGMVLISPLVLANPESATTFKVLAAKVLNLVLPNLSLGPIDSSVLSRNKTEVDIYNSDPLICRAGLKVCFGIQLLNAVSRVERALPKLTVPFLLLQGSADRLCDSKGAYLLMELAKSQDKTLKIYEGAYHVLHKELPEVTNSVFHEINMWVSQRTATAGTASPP

SMILES | IC50 [µM]
C[C@H]1c2nn(C)c(-c3cc(F)cc(F)c3)c2CCN1C(=O)c1ncnn1[C@H]1CCNC1 (single isomer, unassigned) [Example 54, [3-(3,5-Difluorophenyl)-2,7-dimethyl-5,7-dihydro-4H-pyrazolo[3,4-c]pyridin-6-yl]-(2-pyrrolidin-3-yl-1,2,4-triazol-3-yl)methanone; hydrochloride] | 0.714
COc1cccc(C(=O)N2CCc3c(nn(C)c3-c3cc(F)cc(CC(N)=O)c3)[C@@H]2C)c1Cl [Example 17, 2-[3-[(7S)-6-(2-Chloro-3-methoxy-benzoyl)-2,7-dimethyl-5,7-dihydro-4H-pyrazolo[3,4-c]pyridin-3-yl]-5-fluoro-phenyl]acetamide] | 0.188
C[C@H]1c2nn(C)c(-c3cc(F)cc(F)c3)c2CCN1C(=O)c1cc(F)cc(OC[C@H]2CNC(=O)N2)c1Cl [Example 115, (4R)-4-[[2-chloro-3-[(7S)-3-(3,5-difluorophenyl)-2,7-dimethyl-5,7-dihydro-4H-pyrazolo[3,4-c]pyridine-6-carbonyl]-5-fluoro-phenoxy]methyl]imidazolidin-2-one] | 0.00488
COc1cccc(C(=O)N2CCc3c(nn(C)c3-c3cncc(C(F)(F)F)n3)[C@@H]2C)c1Cl [Example 8, (2-Chloro-3-methoxy-phenyl)-[(7S)-2,7-dimethyl-3-[6-(trifluoromethyl)pyrazin-2-yl]-5,7-dihydro-4H-pyrazolo[3,4-c]pyridin-6-yl]methanone] | 0.183
CNS(=O)(=O)Cc1cc(Cl)cc(-c2c3c(nn2C)[C@H](C)N(C(=O)c2cccc(OC)c2Cl)CC3)c1 [Example 3, 1-[3-Chloro-5-[(7S)-6-(2-chloro-3-methoxy-benzoyl)-2,7-dimethyl-5,7-dihydro-4H-pyrazolo[3,4-c]pyridin-3-yl]phenyl]-N-methyl-methanesulfonamide] | 0.063
Cc1c(C(=O)N2CCc3c(nn(C)c3-c3cc(F)cc(F)c3)C2C)cccc1N1CCNC1=O (centres unmarked) [Example 25, 1-[3-[3-(3,5-Difluorophenyl)-2,7-dimethyl-5,7-dihydro-4H-pyrazolo[3,4-c]pyridine-6-carbonyl]-2-methyl-phenyl]imidazolidin-2-one] | 0.892
C[C@@H]1c2nn(C)c(-c3cc(F)cc(F)c3)c2CCN1C(=O)c1cc(F)cc(CCc2cn[nH]c2)c1Cl [Example 103, [2-chloro-5-fluoro-3-[2-(1H-pyrazol-4-yl)ethyl]phenyl]-[(7R)-3-(3,5-difluorophenyl)-2,7-dimethyl-5,7-dihydro-4H-pyrazolo[3,4-c]pyridin-6-yl]methanone] | 0.44
C[C@H]1c2nn(C)c(-c3cc(Cl)cc(C4(NS(C)(=O)=O)CC4)c3)c2CCN1C(=O)c1cc(F)cc(CCc2c[nH]nn2)c1Cl [Example 88, N-[1-[3-chloro-5-[(7S)-6-[2-chloro-5-fluoro-3-[2-(1H-triazol-4-yl)ethyl]benzoyl]-2,7-dimethyl-5,7-dihydro-4H-pyrazolo[3,4-c]pyridin-3-yl]phenyl]cyclopropyl]methanesulfonamide] | 0.00177
COc1cccc(C(=O)N2CCc3c(nn(C)c3-c3cc(Cl)cc(CC(N)=O)c3)[C@@H]2C)c1Cl [Example 14, 2-[3-Chloro-5-[(7S)-6-(2-chloro-3-methoxy-benzoyl)-2,7-dimethyl-5,7-dihydro-4H-pyrazolo[3,4-c]pyridin-3-yl]phenyl]acetamide] | 0.041
CC1c2nn(C)c(-c3cc(F)cc(F)c3)c2CCN1C(=O)c1ccc(CCC2CNC(=O)C2)cc1Cl (centres unmarked) [Example 44, 4-[2-[3-Chloro-4-[3-(3,5-difluorophenyl)-2,7-dimethyl-5,7-dihydro-4H-pyrazolo[3,4-c]pyridine-6-carbonyl]phenyl]ethyl]pyrrolidin-2-one] | 0.261
COc1cccc(C(=O)N2CCc3c(nn(C)c3-c3cc(Cl)cc(C4(C(N)=O)CC4)c3)[C@@H]2C)c1Cl [Example 16, 1-[3-Chloro-5-[(7S)-6-(2-chloro-3-methoxy-benzoyl)-2,7-dimethyl-5,7-dihydro-4H-pyrazolo[3,4-c]pyridin-3-yl]phenyl]cyclopropanecarboxamide] | 0.101
C[C@H]1c2nn(C)c(-c3cncc(C(F)(F)F)n3)c2CCN1C(=O)c1cc(F)cc(N2CC3(C2)CS(=O)(=O)C3)c1Cl [Example 65, [2-chloro-3-(2,2-dioxo-2λ^6-thia-6-azaspiro[3.3]heptan-6-yl)-5-fluoro-phenyl]-[(7S)-2,7-dimethyl-3-[6-(trifluoromethyl)pyrazin-2-yl]-5,7-dihydro-4H-pyrazolo[3,4-c]pyridin-6-yl]methanone] | 2.83
C[C@H]1c2nn(C)c(-c3cc(Cl)cc(C4(S(C)(=O)=O)CC4)c3)c2CCN1C(=O)c1cc(F)cc(-c2ccc(=O)[nH]c2)c1Cl [Example 73, 5-[2-chloro-3-[(7S)-3-[3-chloro-5-(1-methylsulfonylcyclopropyl)phenyl]-2,7-dimethyl-5,7-dihydro-4H-pyrazolo[3,4-c]pyridine-6-carbonyl]-5-fluoro-phenyl]-1H-pyridin-2-one] | 0.145
C[C@H]1c2nn(C)c(-c3cc(F)cc(F)c3)c2CCN1C(=O)c1cc(F)cc(OCC2CNC(=O)O2)c1Cl (single isomer, unassigned) [Example 50, 5-[[2-Chloro-3-[3-(3,5-difluorophenyl)-2,7-dimethyl-5,7-dihydro-4H-pyrazolo[3,4-c]pyridine-6-carbonyl]-5-fluoro-phenoxy]methyl]oxazolidin-2-one] | 0.005
C[C@H]1c2nn(C)c(-c3cc(F)cc(F)c3)c2CCN1C(=O)c1cc(F)cc(N2CC3(C2)CS(=O)(=O)C3)c1Cl [Example 20, [2-Chloro-3-(2,2-dioxo-2λ^6-thia-6-azaspiro[3.3]heptan-6-yl)-5-fluoro-phenyl]-[(7S)-3-(3,5-difluorophenyl)-2,7-dimethyl-5,7-dihydro-4H-pyrazolo[3,4-c]pyridine-6-yl]methanone] | 0.027
C[C@H]1c2nn(C)c(-c3cncc(C(F)(F)F)n3)c2CCN1C(=O)c1cc(F)cc(-c2ccc(=O)[nH]c2)c1Cl [Example 68, 5-[2-chloro-3-[(7S)-2,7-dimethyl-3-[6-(trifluoromethyl)pyrazin-2-yl]-5,7-dihydro-4H-pyrazolo[3,4-c]pyridine-6-carbonyl]-5-fluoro-phenyl]-1H-pyridin-2-one] | 4.29
C[C@H]1c2nn(C)c(-c3cc(F)cc(F)c3)c2CCN1C(=O)c1cc(F)cc(-c2c[nH]c(C#N)c2)c1 [Example 53, 4-[3-[(7S)-3-(3,5-Difluorophenyl)-2,7-dimethyl-5,7-dihydro-4H-pyrazolo[3,4-c]pyridine-6-carbonyl]-5-fluorophenyl]-1H-pyrrole-2-carbonitrile] | 0.003
C[C@H]1c2nn(C)c(-c3cc(F)cc(F)c3)c2CCN1C(=O)c1cc(F)cc(-c2ccc(=O)[nH]c2)c1Cl [Example 29, 5-[2-Chloro-3-[(7S)-3-(3,5-difluorophenyl)-2,7-dimethyl-5,7-dihydro-4H-pyrazolo[3,4-c]pyridine-6-carbonyl]-5-fluoro-phenyl]-1H-pyridin-2-one] | 0.001
COc1cccc(C(=O)N2CCc3c(nn(C)c3-c3cc(Cl)cc(CS(C)(=O)=O)c3)[C@@H]2C)c1Cl [Example 6, (2-Chloro-3-methoxy-phenyl)-[(7S)-3-[3-chloro-5-(methylsulfonylmethyl)phenyl]-2,7-dimethyl-5,7-dihydro-4H-pyrazolo[3,4-c]pyridin-6-yl]methanone] | 0.084
COCCOc1cc(Cl)cc(-c2c3c(nn2C)[C@@H](C)N(C(=O)c2cccc(OC)c2Cl)CC3)c1 [Example 79, [(7R)-3-[3-chloro-5-(2-methoxyethoxy)phenyl]-2,7-dimethyl-5,7-dihydro-4H-pyrazolo[3,4-c]pyridin-6-yl]-(2-chloro-3-methoxy-phenyl)methanone] | 1.24
C[C@H]1c2nn(C)c(-c3cc(F)cc(F)c3)c2CCN1C(=O)c1cc(F)cc(CCc2cn[nH]c2)c1Cl [Example 102, [2-chloro-5-fluoro-3-[2-(JH-pyrazol-4-yl)ethyl]phenyl]-[(7S)-3-(3,5-difluorophenyl)-2,7-dimethyl-5,7-dihydro-4H-pyrazolo[3,4-c]pyridin-6-yl]methanone] | 0.00153
C[C@H]1c2nn(C)c(-c3cc(F)cc(F)c3)c2CCN1C(=O)c1cccc(OCC2CNC(=O)O2)c1Cl (stereo partly drawn) [Example 110, 5-[[2-chloro-3-[(7S)-3-(3,5-difluorophenyl)-2,7-dimethyl-5,7-dihydro-4H-pyrazolo[3,4-c]pyridine-6-carbonyl]phenoxy]methyl]oxazolidin-2-one] | 0.00209
CC1c2nn(C)c(-c3cc(Cl)cc(S(N)(=O)=O)c3)c2CCN1C(=O)c1ncn(-c2ccc[nH]c2=O)n1 (centres unmarked) [Example 59, 3-Chloro-5-[2,7-dimethyl-6-[1-(2-oxo-1H-pyridin-3-yl)-1,2,4-triazole-3-carbonyl]-5,7-dihydro-4H-pyrazolo[3,4-c]pyridin-3-yl]benzenesulfonamide] | 1.07
COc1cccc(C(=O)N2CCc3c(nn(C)c3-c3cncc(S(C)(=O)=O)c3)[C@@H]2C)c1Cl [Example 10, (2-Chloro-3-methoxy-phenyl)-[(7S)-2,7-dimethyl-3-(5-methylsulfonyl-3-pyridyl)-5,7-dihydro-4H-pyrazolo[3,4-c]pyridin-6-yl]methanone] | 4.87
COc1cccc(C(=O)N2CCc3c(nn(C)c3-c3cc(Cl)cc(S(N)(=O)=O)c3)[C@@H]2C)c1Cl [Example 4, 3-Chloro-5-[(7S)-6-(2-chloro-3-methoxy-benzoyl)-2,7-dimethyl-5,7-dihydro-4H-pyrazolo[3,4-c]pyridin-3-yl]benzenesulfonamide] | 0.027
CC1c2nn(C)c(-c3cc(F)cc(F)c3)c2CCN1C(=O)c1cc(-c2cccc(C#N)c2)ccc1F (centres unmarked) [Example 26, 3-[3-[3-(3,5-Difluorophenyl)-2,7-dimethyl-5,7-dihydro-4H-pyrazolo[3,4-c]pyridine-6-carbonyl]-4-fluoro-phenyl]benzonitrile] | 0.084
